The target of experiment [1] is T1, PDGFR-β (Homo sapiens, UniProt P09619).
T1 construct: host or cells: NIH 3T3
Put plainly: Biochemical PDGFR assay (ELISA, PDGFR-β expressing NIH 3T3 cell lysate). To be noted: read-out: bio PDGF IC50. The gist of the method: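 PDGFR-β from NIH 3T3 cell lysate captured on anti-PDGFR (28D4C10)-coated plates; compound preincubated 30 min, then 20 μM ATP kinase reaction 30 min at room temperature, stopped with EDTA. Phosphotyrosine detected by anti-phosphotyrosine antibody, peroxidase conjugate and ABTS/H2O2, read at 410 nm.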
For orientation: ELISA stands for enzyme-linked immunosorbent assay.

Experiment [2] concerns the target T2, flkGST (Homo sapiens, UniProt P35968).
T2 construct: GST
The experiment in a line: bio flkGST assay. The experiment is classed as biochemical.

For experiment [3], the target named is pyk2 (Homo sapiens, UniProt Q14289). Put plainly: bio pyk2 assay. The experiment is classed as biochemical.
Chain of pyk2 (Q14289 whole entry, species assumed, the tested form may be a part): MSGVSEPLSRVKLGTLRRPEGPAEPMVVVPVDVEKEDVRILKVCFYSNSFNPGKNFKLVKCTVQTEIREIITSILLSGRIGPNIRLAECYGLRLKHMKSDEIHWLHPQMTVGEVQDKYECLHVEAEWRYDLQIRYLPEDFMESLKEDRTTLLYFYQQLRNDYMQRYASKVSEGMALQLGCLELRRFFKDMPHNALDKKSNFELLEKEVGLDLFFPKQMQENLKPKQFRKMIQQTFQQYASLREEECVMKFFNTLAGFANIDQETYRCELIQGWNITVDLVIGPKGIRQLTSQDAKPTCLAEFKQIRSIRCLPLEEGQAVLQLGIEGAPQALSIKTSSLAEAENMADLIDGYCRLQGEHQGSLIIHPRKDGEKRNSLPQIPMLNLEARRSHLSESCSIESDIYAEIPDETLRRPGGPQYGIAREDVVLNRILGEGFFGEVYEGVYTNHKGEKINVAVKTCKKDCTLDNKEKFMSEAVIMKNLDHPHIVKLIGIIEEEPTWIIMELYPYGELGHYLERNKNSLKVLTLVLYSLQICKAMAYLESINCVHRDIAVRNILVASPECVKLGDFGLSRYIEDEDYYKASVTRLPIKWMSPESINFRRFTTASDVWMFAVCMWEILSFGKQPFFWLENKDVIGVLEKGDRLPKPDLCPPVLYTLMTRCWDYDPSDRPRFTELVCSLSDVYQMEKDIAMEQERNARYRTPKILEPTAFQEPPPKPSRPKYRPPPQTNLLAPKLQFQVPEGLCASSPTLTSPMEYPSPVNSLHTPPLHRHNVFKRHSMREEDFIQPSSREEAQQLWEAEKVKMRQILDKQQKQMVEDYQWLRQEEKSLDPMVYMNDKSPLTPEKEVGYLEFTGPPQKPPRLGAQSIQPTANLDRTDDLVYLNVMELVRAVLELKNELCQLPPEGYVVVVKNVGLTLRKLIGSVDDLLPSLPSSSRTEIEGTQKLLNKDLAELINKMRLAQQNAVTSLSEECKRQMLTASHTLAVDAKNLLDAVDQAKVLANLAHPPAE
For experiment [4], the target named is Myc-GyrB-FGFR fusion protein (Homo sapiens, UniProt P11362). The experiment in a line: Biochemical FGFR assay (ELISA). To be noted: read-out: bio fgfR1 IC50.
Chain of Myc-GyrB-FGFR fusion protein (P11362 478-767 limits assumed): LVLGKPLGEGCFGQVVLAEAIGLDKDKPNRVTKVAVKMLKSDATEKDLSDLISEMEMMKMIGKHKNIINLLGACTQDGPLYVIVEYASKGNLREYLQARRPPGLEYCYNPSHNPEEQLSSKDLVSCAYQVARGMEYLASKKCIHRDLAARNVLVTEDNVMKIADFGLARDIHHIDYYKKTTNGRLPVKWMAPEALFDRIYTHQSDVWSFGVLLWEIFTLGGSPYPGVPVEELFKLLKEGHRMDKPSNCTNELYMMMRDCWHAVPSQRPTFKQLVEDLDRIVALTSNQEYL
Experiment [5] deals with EGFR (Homo sapiens, UniProt P00533). Put plainly: Biochemical EGFR assay (ELISA, A431 cell lysate). More on the design: A431 cell lysate (Screening Lab, SUGEN, Inc.); host or cells: A431. To be noted: read-out: bio EGFr IC50. As to the method: This assay measures the in vitro kinase activity of EGFR using ELISA.
Chain of EGFR (P00533 25-1210): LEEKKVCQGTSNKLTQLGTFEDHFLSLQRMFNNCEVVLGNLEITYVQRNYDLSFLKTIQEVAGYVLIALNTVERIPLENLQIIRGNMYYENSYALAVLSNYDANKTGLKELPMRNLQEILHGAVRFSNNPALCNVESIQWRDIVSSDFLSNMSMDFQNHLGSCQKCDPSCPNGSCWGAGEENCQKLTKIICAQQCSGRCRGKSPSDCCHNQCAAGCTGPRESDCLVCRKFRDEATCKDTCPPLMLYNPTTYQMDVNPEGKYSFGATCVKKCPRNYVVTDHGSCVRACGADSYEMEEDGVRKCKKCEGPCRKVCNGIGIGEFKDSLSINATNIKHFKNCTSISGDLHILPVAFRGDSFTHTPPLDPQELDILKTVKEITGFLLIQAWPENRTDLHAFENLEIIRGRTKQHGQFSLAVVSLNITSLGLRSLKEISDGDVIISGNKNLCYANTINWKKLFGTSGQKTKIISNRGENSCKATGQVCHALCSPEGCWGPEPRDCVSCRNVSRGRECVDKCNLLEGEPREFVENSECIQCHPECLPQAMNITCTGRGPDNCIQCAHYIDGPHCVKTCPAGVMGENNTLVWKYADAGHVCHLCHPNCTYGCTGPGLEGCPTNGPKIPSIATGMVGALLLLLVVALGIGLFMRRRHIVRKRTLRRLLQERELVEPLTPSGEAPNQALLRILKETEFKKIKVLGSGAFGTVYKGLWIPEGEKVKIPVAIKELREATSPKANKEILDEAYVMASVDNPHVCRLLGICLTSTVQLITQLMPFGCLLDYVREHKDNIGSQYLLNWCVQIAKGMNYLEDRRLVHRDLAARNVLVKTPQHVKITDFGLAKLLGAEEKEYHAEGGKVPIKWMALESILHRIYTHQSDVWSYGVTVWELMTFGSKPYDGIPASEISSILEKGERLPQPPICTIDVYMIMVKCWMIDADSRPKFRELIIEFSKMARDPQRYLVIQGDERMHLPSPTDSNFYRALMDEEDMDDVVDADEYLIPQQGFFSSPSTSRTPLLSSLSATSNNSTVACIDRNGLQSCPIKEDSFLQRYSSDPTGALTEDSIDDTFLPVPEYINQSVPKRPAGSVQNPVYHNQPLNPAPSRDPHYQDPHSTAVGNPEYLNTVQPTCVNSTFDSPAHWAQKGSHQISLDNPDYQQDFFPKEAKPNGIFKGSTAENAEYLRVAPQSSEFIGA
Materials and Reagents • 1. […] SUMO1 monoclonal anti-EGFR antibody (Biochemistry Lab, SUGEN, Inc.). • 3. PBS (Dulbecco's Phosphate-Buffered Saline, Gibco Catalog No. 450-1300EB). • 4. TBST Buffer
• 6. A431 cell lysate (Screening Lab, SUGEN, Inc.) • 7. TBS Buffer:
Prepare a 1.0 mM solution in dH2O. This reagent should be made up immediately prior to use and kept on ice. • 10. MnCl2.
Prepare a 1.0 M stock solution in dH2O. • 11. ATP/MnCl2 phosphorylation mix
This reagent should be prepared immediately before use and kept on ice. • 12. NUNC 96-well V bottom polypropylene plates (Applied Scientific Cat. No. AS-72092). • 13. Ethylenediaminetetraacetic acid (EDTA)
Prepare 200 mM working solution in dH2O. Adjust to pH 8.0 with 10 N NaOH. • 14. Rabbit polyclonal anti-phosphotyrosine serum (Biochemistry Lab, SUGEN, Inc.) • 15. Goat anti-rabbit IgG peroxidase conjugate (Biosource Cat. No. ALI0404) • 16. ABTS (2,2′-azino-bis(3-ethylbenzthiazoline-6-sulfonic acid), Sigma Cat. No. A-1888).
Mix first two ingredients in about 900 ml dH2O, adjust pH to 4.0 with phosphoric acid. Add ABTS, cover, let sit about 0.5 hr., filter. The solution should be kept in the dark at 4° C. until ready to use. • 17. Hydrogen peroxide 30% solution (Fisher Cat. No. H325) • 18. ABTS/H2O2 • Mix 15 ml ABTS solution and 2.0 μl H2O2. Prepare 5 minutes before use. • 19. 0.2 M HCl
Procedure • 1. Coat Corning 96 well ELISA plates with 0.5 μg SUMO1 in 100 μl PBS per well, store overnight at 4° C. • 2. Remove unbound SUMO1 from wells by inverting plate to remove liquid., Wash 1× with dH2O. Pat the plate on a paper towel to remove excess liquid. • 3. Add 150 μl of Blocking Buffer to each well. Incubate for 30 min. at room temperature with shaking. • 4. Wash plate 3× with deionized water, then once with TBST. Pat plate on a paper towel to remove excess liquid and bubbles. • 5. Dilute lysate in PBS (7 μg lysate/100 μl PBS). • 6. Add 100 μl of diluted lysate to each well. Shake at room temperature for 60 min. • 7. Wash plates as described in 4, above. • 8. Add 120 μl TBS to ELISA plate containing captured EGFR. • 9. Dilute test compound 1:10 in TBS in 96-well polypropylene plates (i.e. 10 μl compound+90 μl TBS). • 10. Add 13.5 μl diluted test compound to ELISA plate. […] Incubate for 30 minutes while shaking at room temperature. • 12. […] After 5 minutes, stop reaction by adding 16.5 μl of 200 mM EDTA (pH 8.0) to each well, shaking continuously. After the EDTA has been added, shake for 1 min. • 14. Wash 4× with deionized water, twice with TBST. • 15. Add 100 μl anti-phosphotyrosine (1:3000 dilution in TBST) per well. Incubate 30-45 min. at room temperature, with shaking. • 16. Wash as described in 4, above. • 17. Add 100 μl Biosource Goat anti-rabbit IgG peroxidase conjugate (1:2000 dilution in TBST) to each well. Incubate 30 min. at room temperature, with shaking. • 18. Wash as described in 4, above. • 19. Add 100 μl of ABTS/H2O2 solution to each well. • 20. Incubate 5 to 10 minutes with shaking. Remove any bubbles. • 21. If necessary stop reaction with the addition of 100 μl 1 0.2 M HCl per well. • 22. Read assay on Dynatech MR7000 ELISA reader. Test Filter: 410 nM Reference Filter: 630 Nm.

pIC50: −log10 of the molar value.

T1 sequence (P09619 33-1106): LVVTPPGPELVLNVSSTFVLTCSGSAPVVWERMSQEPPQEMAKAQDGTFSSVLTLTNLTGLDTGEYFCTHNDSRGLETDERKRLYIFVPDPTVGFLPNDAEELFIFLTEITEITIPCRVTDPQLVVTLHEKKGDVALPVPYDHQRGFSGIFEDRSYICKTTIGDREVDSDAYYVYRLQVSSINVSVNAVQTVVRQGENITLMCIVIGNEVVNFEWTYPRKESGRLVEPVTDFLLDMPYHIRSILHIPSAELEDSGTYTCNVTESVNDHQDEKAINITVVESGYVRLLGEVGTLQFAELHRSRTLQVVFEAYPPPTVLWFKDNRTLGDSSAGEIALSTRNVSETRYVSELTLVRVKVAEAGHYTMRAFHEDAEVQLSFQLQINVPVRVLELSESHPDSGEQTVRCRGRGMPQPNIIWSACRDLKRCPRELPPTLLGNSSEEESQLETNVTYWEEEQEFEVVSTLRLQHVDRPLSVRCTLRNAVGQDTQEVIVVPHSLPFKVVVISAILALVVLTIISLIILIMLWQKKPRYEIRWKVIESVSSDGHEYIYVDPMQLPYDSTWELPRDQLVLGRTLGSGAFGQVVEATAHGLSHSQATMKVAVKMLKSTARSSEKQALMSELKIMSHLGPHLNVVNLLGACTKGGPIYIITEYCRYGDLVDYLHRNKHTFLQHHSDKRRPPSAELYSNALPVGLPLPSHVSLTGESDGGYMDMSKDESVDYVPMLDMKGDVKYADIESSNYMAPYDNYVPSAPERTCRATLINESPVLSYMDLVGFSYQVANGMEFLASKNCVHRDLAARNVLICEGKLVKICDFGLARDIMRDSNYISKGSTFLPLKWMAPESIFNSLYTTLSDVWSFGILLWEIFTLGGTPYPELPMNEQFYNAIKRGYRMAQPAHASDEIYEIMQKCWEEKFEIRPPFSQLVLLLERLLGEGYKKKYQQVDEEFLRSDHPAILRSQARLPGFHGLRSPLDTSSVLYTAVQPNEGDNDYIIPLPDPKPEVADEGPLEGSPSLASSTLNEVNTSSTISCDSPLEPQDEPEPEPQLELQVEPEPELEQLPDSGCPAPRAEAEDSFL
T2 sequence (P35968 786-1356 limits assumed): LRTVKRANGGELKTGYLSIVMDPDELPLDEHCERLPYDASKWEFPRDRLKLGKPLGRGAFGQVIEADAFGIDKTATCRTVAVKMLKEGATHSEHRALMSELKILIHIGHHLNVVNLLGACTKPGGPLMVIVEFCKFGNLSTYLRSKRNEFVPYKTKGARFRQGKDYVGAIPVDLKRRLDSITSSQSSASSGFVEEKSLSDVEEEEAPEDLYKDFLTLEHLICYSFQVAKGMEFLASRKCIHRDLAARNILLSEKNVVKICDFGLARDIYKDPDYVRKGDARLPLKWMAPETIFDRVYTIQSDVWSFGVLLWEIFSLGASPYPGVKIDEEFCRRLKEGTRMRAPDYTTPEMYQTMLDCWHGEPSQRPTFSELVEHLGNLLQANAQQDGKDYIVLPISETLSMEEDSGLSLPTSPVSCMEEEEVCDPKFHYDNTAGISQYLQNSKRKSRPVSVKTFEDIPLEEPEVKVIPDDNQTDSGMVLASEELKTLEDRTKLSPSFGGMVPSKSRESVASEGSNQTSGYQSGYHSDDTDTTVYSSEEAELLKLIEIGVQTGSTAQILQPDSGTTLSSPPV

Take `CN(C)CCCc1c(/C=C2\C(=O)Nc3cccc(CCO)c32)[nH]c2ccccc12` [Example 150, 3-[3-(3-Dimethylaminopropyl)-1H-indol-2-ylmethylene]-4-(2-hydroxyethyl)-1,3-dihydroindol-2-one]: the figures for the pIC50 in experiment [1], in experiment [2] and in experiment [3] were 6.47, 6.70 and 8.00, respectively.

On to `CCOC(=O)c1[nH]c(/C=C2\C(=O)Nc3ccc(S(=O)(=O)NC(C)C)cc32)c(CCC(=O)O)c1C` [Example 148, 4-(2-Carboxyethyl)-5-(5-isopropylsulfamoyl-2-oxo-1,2-dihydro-indol-3-ylidenemethyl)-3-methyl-1H-pyrrole-2-carboxylic acid ethyl ester], for which the pIC50 (as a rule, the IC50 on a negative log10 scale, so that one unit is a factor of ten) in experiment [1] is under 4.00; in experiment [4], under 4.70; in experiment [2], 4.62; in experiment [5], under 4.00.

As for `CCOC(=O)c1[nH]c(/C=C2\C(=O)Nc3cc(Br)ccc32)c(CCC(=O)O)c1C` [Example 142, 5-(6-Bromo-2-oxo-1,2-dihydroindol-3-ylidenemethyl)-4-(2-carboxy-ethyl)-3-methyl-1H-pyrrole-2-carboxylic acid ethyl ester], the pIC50 in experiment [1] was under 4.00; in experiment [4], 5.23; in experiment [2], 4.67; in experiment [5] it was under 4.00.

Turning to `CCOC(=O)c1[nH]c(/C=C2\C(=O)Nc3cc(OC)ccc32)c(CCC(=O)O)c1C` [Example 141, 4-(2-Carboxyethyl)-5-(6-methoxy-2-oxo-1,2-dihydroindol-3-ylidenemethyl)-3-methyl-1H-pyrrole-2-carboxylic acid ethyl ester], the pIC50 is 4.07 in experiment [1], 5.08 in experiment [4], 4.94 in experiment [2] and under 4.00 in experiment [5].

As for `CCOC(=O)c1[nH]c(/C=C2\C(=O)Nc3ccc(Br)cc32)c(CCC(=O)O)c1C` [Example 143, 5-(5-Bromo-2-oxo-1,2-dihydroindol-3-ylidenemethyl)-4-(2-carboxy-ethyl)-3-methyl-1H-pyrrole-2-carboxylic acid ethyl ester], the pIC50 in experiment [1] was under 4.00; in experiment [4], 4.78; in experiment [2] it was 4.57; in experiment [5], under 4.00.

For the molecule `CCOC(=O)c1c(C)[nH]c(/C=C2\C(=O)Nc3ccc(S(=O)(=O)NC)cc32)c1CCCN1CCN(C)CC1` [Example 119, 2-Methyl-4-[3-(4-methylpiperazin-1-yl)-propyl]-5-(5-methylsulfamoyl-2-oxo-1,2-dihydroindol-3-ylidenemethyl)-1H-pyrrole-3-carboxylic acid ethyl ester], the pIC50 in experiment [1] is under 4.00; in experiment [2] it was 5.20; in experiment [3], 5.69.

In the case of `CCOC(=O)c1[nH]c(C=C2C(=O)Nc3ccc(S(N)(=O)=O)cc32)c(CCC(=O)O)c1C` [Example 145, 4-(2-Carboxyethyl)-3-methyl-5-(2-oxo-5-sulfamoyl-1,2-dihydro-indol-3-ylidenemethyl)-1H-pyrrole-2-carboxylic acid ethyl ester], the pIC50 in experiment [1] was under 4.00; in experiment [4] it was 4.81; in experiment [2] it was 4.93; in experiment [5], under 4.00.

For `CCOC(=O)c1c(C)[nH]c(/C=C2\C(=O)Nc3cccc(CCO)c32)c1CCCN1CCOCC1` [Example 131, 5-[4-(2-Hydroxyethyl)-2-oxo-1,2-dihydroindol-3-ylidenemethyl]-2-methyl-4-(3-morpholin-4-ylpropyl)-1H-pyrrole-3-carboxylic acid ethyl ester], the pIC50 in experiment [1] was 4.63; in experiment [3], 5.66.

As to `CCOC(=O)c1c(C)[nH]c(/C=C2\C(=O)Nc3ccc(Cl)cc32)c1CCC(=O)O` [Example 112, 4-(2-Carboxyethyl)-5-(5-chloro-2-oxo-1,2-dihydroindol-3-ylidenemethyl)-2-methyl-1H-pyrrole-3-carboxylic acid ethyl ester], the pIC50 in experiment [1] was 7.70; in experiment [4], under 4.70; in experiment [2], 5.63; in experiment [5], under 4.00.

With `CCOC(=O)c1[nH]c(/C=C2\C(=O)Nc3cc(-c4ccccc4)ccc32)c(CCC(=O)O)c1C` [Example 144, 4-(2-Carboxyethyl)-3-methyl-5-(2-oxo-6-phenyl-1,2-dihydroindol-3-ylidenemethyl)-1H-pyrrole-2-carboxylic acid ethyl ester], the pIC50 in experiment [1] was under 4.00; in experiment [4] it was 5.56; in experiment [2], 5.04; in experiment [5], under 4.00.

Take `CCOC(=O)c1c(C)[nH]c(/C=C2\C(=O)Nc3cccc(CCO)c32)c1CCCN1CCCC1` [Example 132, 5-[4-(2-Hydroxyethyl)-2-oxo-1,2-dihydroindol-3-ylidenemethyl]-2-methyl-4-(3-pyrrolidin-1-ylpropyl)-1H-pyrrole-3-carboxylic acid ethyl ester]: the figures for the pIC50 in experiment [1] and in experiment [3] were 6.19 and 6.66, respectively.

Regarding `CCOC(=O)c1[nH]c(/C=C2\C(=O)Nc3cccc(C)c32)c(CCC(=O)O)c1C` [Example 139, 4-(2-Carboxyethyl)-3-methyl-5-(4-methyl-2-oxo-1,2-dihydroindol-3-ylidenemethyl)-1H-pyrrole-2-carboxylic acid ethyl ester], the pIC50 is under 4.00 in experiment [1], 4.90 in experiment [4], 5.12 in experiment [2] and under 4.00 in experiment [5].

Regarding `CCOC(=O)c1[nH]c(/C=C2\C(=O)Nc3ccc(OC)cc32)c(CCC(=O)O)c1C` [Example 140, 4-(2-Carboxyethyl)-5-(5-methoxy-2-oxo-1,2-dihydroindol-3-ylidenemethyl)-3-methyl-1H-pyrrole-2-carboxylic acid ethyl ester], the pIC50 was under 4.00 in experiment [1], 4.89 in experiment [4], 5.18 in experiment [2] and under 4.00 in experiment [5].

`CCOC(=O)c1[nH]c(/C=C2\C(=O)Nc3ccc(S(=O)(=O)NC)cc32)c(CCC(=O)O)c1C` [Example 146]: the pIC50 in experiment [1] was under 4.00; in experiment [4], under 4.70; in experiment [2], 4.81; in experiment [5], under 4.00.

Regarding `CCOC(=O)c1[nH]c(/C=C2\C(=O)Nc3ccc(S(=O)(=O)N(C)C)cc32)c(CCC(=O)O)c1C` [Example 147, 4-(2-Carboxyethyl)-5-(5-dimethylsulfamoyl-2-oxo-1,2-dihydro-indol-3-ylidenemethyl)-3-methyl-1H-pyrrole-2-carboxylic acid ethyl ester], the negative logarithm of the IC50 (pIC50) is under 4.00 in experiment [1], under 4.70 in experiment [4], 4.82 in experiment [2] and under 4.00 in experiment [5].
